# Results as given in patent US12378220B2, “WNT signaling pathway inhibitors for treatments of disease” (University of Maryland, Baltimore, priority 2016, dated 2025).
# pIC50: −log10 of the molar value. “Also recorded” adds a separate entry of the source. Read-outs that look alike come from different tables or passages of the source.
# Tests used:
# HepG2 cells [1] = assay: glucose production, G6P expression and AMPK phosphorylation; assay type: cell-based, human
# in vivo = assay: in vivo
# Source text: Representative data from each group is shown.
# Blood samples were collected at multiple time points. […] Ultra-performance liquid chromatography system with a triple quadruple detector (UPLC/TQD) was used for compound quantitation.
# [2] = metabolic stability, substrate depletion in liver S9 fraction; assay type: in vitro ADME, mouse; details: 37 degrees, after one hour
# Experimental: (§1) FIGS. 5A and 5B illustrate the metabolic stability of YW1149. S9 fraction from mouse liver tissues (FIG. 5A) and mouse plasma samples (FIG. 5B) were mixed with YW1149 and incubated at 37 degrees, respectively. *P<0.05 as compared to time 0.
# (§2) The metabolic stability of these compounds was then estimated using YW1149 as a prototypical compound, with in vitro substrate depletion in mouse liver tissue S9 fraction as previously described (Jones and Houston, 2004).
# HepG2 cells [3] = assay: expression of Wnt pathway proteins; assay type: cell-based, human; details: FIG. 3
# Experimental: HepG2 cells were treated by YW1149 (vehicle, 0.1, 1 μM).
# HEK293 cells = assay: cytotoxicity, Cell Counting Kit-8 colorimetric assay; details: Homo sapiens, HEK293, read-out: anti-proliferation IC50
# Experimental: The cytotoxicity of series of a compound of the invention was measured using a colorimetric assay, Cell Counting Kit-8 (Sigma) in HEK293 cells.
# plasma stability = assay type: in vitro ADME; details: mouse plasma, 37 degrees
# Experimental: as §1, §2
# primary hepatocytes = assay: glucose production in primary hepatocytes; assay type: cell-based
# Source text: In light of this evidence, a class of triazole-based inhibitors were synthesized and tested, as described herein.
# Wnt/β-catenin pathway = assay: dual-luciferase TCF/LEF reporter assay, LiCl-activated, HEK293 cells; assay type: cell-based; details: Homo sapiens; for activity at 1 µM: HEK293, 24 h, At 1 μM concentration, remaining Wnt signaling activity, read-out: RLU % (Relative Light Units in reporter gene assays); for IC50: Table 3, values in nM, read-out: IC50
# Experimental: Lithium chloride (LiCl), which has been previously established as an activator of the Wnt/β-catenin pathway through its direct and indirect effects on GSK3β was used for pathway activation. The inhibition of the Wnt/β-catenin pathway by a compound may be determined after its incubation with cells for 24 hours.
# The assay provided herein is a dual-luciferase assay to measure Wnt/β-catenin pathway activation using a TCF/LEF responsive reporter construct similar to that described previously (Thorne et al., 2010).
# SW480 cells [4] = assay: mitochondrial function and morphology; assay type: cell-based, human
# Experimental: FIG. 38B illustrates ATP production estimated from the OCR measurement. […] DHE fluorescence intensity was measured by using ImageJ. ˜300 cells were counted in each treatment.
# Mitochondrial function and morphology was determined in SW480 cells treated with YW2065.
# SW620 xenograft = SW620 xenograft tumor growth; assay type: in vivo, nude mice; details: i.p. 10 mg/kg or 50 mg/kg each day, 32 day study, vs vehicle
# Experimental: FIG. 37A illustrates tumor growth measured during the study every other day. FIG. 37B illustrates tumor weight that was measured after mouse euthanization. FIG. 37C illustrates the change in mouse body weight during the study.
# Six-week old nude mice were injected with 2×10^6 SW620 cells subcutaneously. 10 days after inoculation, mice received an i.p. injection of YW2065 at 10 mg/kg or 50 mg/kg or vehicle each day. The tumor growth (FIG. 37A) was measured every other day. The mice were euthanized at day 32, and tumors were weighed (FIG. 37B). Body weight change was monitored during the study (FIG. 37C).
# SW480 cells [5] = assay: Western blot of Wnt signaling proteins; assay type: cell-based, human; details: 48 h
# Experimental: Using a Wester Blot, compounds YW2013 and YW2123 were tested in SW480 cells to determine their effect on the expression of Axin-2, β-catenin, and c-myc.
# Western Blot: 1×10^6 Cells of SW480 cells were seeded into 6-well plates overnight. A concentration of 3, 10, 30 μM/L YW2013 and 3, 10 μM/L YW2123 was added after 24 h, medium with 1‰ DMSO was used as the control. Cells were exposed to treatment for 48 h. The dishes was washed twice using precold PBS and 100 μL of RIPA then added. After incubating plates on ice for 15 min, cells were scraped carefully and centrifuged for 10 minutes at 14,000 g at 4° C. immediately. The remaining supernatant and lysates were maintained at −70° C. A Bio-Rad protein assay kit (500-0002) was used to quantitate the cell lysates. The concentration was adjusted to 2 mg/ml. A ratio of 1:1 2× loading buffer was added and the samples were denatured by boiling. Protein samples were separated on 4-15% SDS-polyacrylamide gel (SDS-PAGE) and transferred onto the PVDF membranes (Millipore). Immune complexes were formed by incubation of the proteins with primary antibody β-catenin, c-myc, Axin-2, and GAPDH at 4° C. overnight. A second antibody with horseradish peroxidase (HRP, sigma) conjugated was used then. Blots were developed by enhanced chemiluminescence (Thermo).
# A549 cells = assay: quantitative real-time RT-PCR of Wnt regulated genes; assay type: cell-based, human
# Experimental: (§3) Quantitative Real-time RT-PCR. The total RNA extracted from the cells using TRIzol (Invitrogen) and 2 μg was reverse transcribed in a 20-μl volume system (QuantiTect Reverse Transcription Kit (Qiagen)) for quantitative PCR assays. SYBR green quantitative real-time PCR analyses were carried out using gene-specific primers (working concentration at 250 nM) in StepOnePlus real time PCR system (Applied Biosystems, AB), using the housekeeping gene GAPDH as an internal control. The PCR running procedure was as follows: 4 min denaturing at 95° C., followed by 40 cycles of 30 seconds of denaturing at 95° C. and then annealing and extension at 60° C. for 1 min.
# WiDr cells = assay: as above; assay type: cell-based, human
# Experimental: as §3
# SW620 cells [6] = assay: as above; assay type: cell-based, human
# Experimental: as §3
# SW620 cells [7] = assay: Annexin-V/AAD-7 double-staining apoptosis assay; assay type: cell-based, human; details: SW620 cells, 0, 3, 10, 30 μM, 48 h
# Experimental: Annexin-V/AAD-7 Double-Staining Assay. SW620 cells were treated with 0, 3, 10, 30 μM/L of YW2013 for 48 h. Then they were harvested and washed with PBS. Apoptotic cells were determined with an FITC Annexin V Apoptosis Detection Kit according to the manufacturer's protocol. Briefly, the cells were washed and subsequently incubated for 15 min at room temperature in the dark in 100 μL of 1× binding buffer containing 2 μL of Annexin V-FITC and 2 μL of AAD-7. After 30 min, apoptosis was analyzed by BD FACSCanto II Flow Cytometer.
# SW480 cells [8] = assay: colony formation assay; assay type: cell-based, human; details: 0-30 μM, 2 weeks
# Experimental: (§4) Colony Formation Assay. HT-29 and SW620, SW480 cells were seeded into 6-well dishes with the medium containing 0, 1, 3, 10, 30 μM/L of YW2013 or YW2044, 500 cells/well. After 2 weeks, cells were fixed with 4% paraformaldehyde solution and stained with 0.5% crystal violet for 1 h at room temperature. The images of colonies were captured by microscopy.
# SW620 cells [9] = assay: colony formation assay; assay type: cell-based, human
# Experimental: as §4
# SW620 cells [10] = assay: cell cycle analysis by flow cytometry; assay type: cell-based, human; details: unsynchronized and synchronized, 24 h
# Experimental: SW620 cells were treated with YW2013 at various concentrations (0, 1, 10 μM) to determine the effect of YW2013 on the SW620 cell cycle in an unsynchronized assay (FIG. 27A) and an assay where cells were treated with FBS free medium for 24 hours up to synchronization before adding YW2013 (FIG. 27B).
# Cell Cycle Analysis. SW620 cells were plated in 6-well plates for 24 h, and the medium was replaced with medium containing 0, 1, 10, μM/L of YW2013. After incubation for 24 h, the cells were harvested by trypsinization and then fixed with 70% 4° C. ethanol. Intracellular DNA was stained with 50 ng/ml propidium iodide in the dark for 30 min at room temperature, and the percentages of different phase of cells were determined by flow cytometry (BD FACScan; BD Biosciences).
# [11] = test system: WiDr, SW620, HT29, HEK_LTV, and T84 cell lines; assay: cell proliferation and growth inhibition assay (CCK-8), cell line panel; assay type: cell-based, human; details: 72 h, FIG. 12
# Experimental: Cell Proliferation and Growth Inhibition Assay. HT-29, HCT-116, WiDr, SW620, SW480, T84, A549, MCF-7, HepG2, Hela cells were cultured in respective growth medium. Cells of log phase were used. 3000-5000 cells/well were seeded in 96-well plates with a 100 μL volume. After 24 h, Compounds were dissolved to […] with DMSO, and a 3-fold serial dilution of the compounds from 5×10^−5 M to […] was performed. 2 μL of compound solution was added to 998 μL of growth medium, the mixture was vortexed sufficiently. 100 μL of the mixture was correspondingly added to the 96-well plate. 2 μL DMSO instead of compound solution was used as the 0% inhibitor control. After coincubation for 72 h, the old medium was removed and 100 μL of 10% CCK-8 in culture medium was added. 2 h later the plates were read in the microplate reader (Bio-Rad) at 450 nm. The data was calculated using Graph Pad Prism version 5.0. The IC50 were fitted using a nonlinear regression model with a sigmoidal dose response.
# [12] = test system: Madin-Darby Canine Kidney (MDCK) epithelial cell monolayer; assay: permeability across MDCK monolayer on transwell plates; assay type: in vitro ADME; details: data not shown
# HT-29 cells = assay: colony formation assay; assay type: cell-based, human; details: 0-30 μM, 2 weeks
# Experimental: as §4
# [13] = HepG2, 0.1 μM pyrvinium, 10 μM YW1149
compound,measurement,setting,value
"COc1ccccc1-n1nnc(C(=O)Nc2ccc3ccccc3n2)c1C [YW1149, 1-(2-Methoxyphenyl)-5-methyl-N-(quinolin-2-yl)-1H-1,2,3-triazole-4-carboxamide]",expression of glucose 6-phosphatase (G6P),HepG2 cells [1]; [13],significantly suppress
same,glucose production,HepG2 cells [1]; [13],significantly suppress
same,phosphorylation of AMPK,HepG2 cells [1]; HepG2 cells,increase phosphorylation
same,bioavailability,"in vivo; C57BL/6, mouse",75%
same,intravenous half-life,"in vivo; mouse, iv, 10 mg/kg",one
same,metabolism in liver S9 fraction,[2],Only minor metabolism was observed after one hour
same,Axin protein expression,HepG2 cells [3],increased
same,β-catenin and target gene c-Myc protein,HepG2 cells [3],attenuation
same,pIC50,HEK293 cells,< 4.00
same,stability in plasma,plasma stability,stable in plasma for up to eight hours
same,glucose production,primary hepatocytes,reduces glucose production
same,activity at 1 µM,Wnt/β-catenin pathway,5%
same,pIC50,"Wnt/β-catenin pathway; HEK293, FIG. 1, cellular luciferase gene reporter assay, read-out: IC50, Wnt/β-catenin pathway inhibition",7.13
same,IC50,Wnt/β-catenin pathway; HEK293,88 nM
"Cc1c(C(=O)Nc2ccc3ccccc3n2)cnn1-c1ccccc1Br [YW2065, 1-(2-Bromophenyl)-5-methyl-N-(quinolin-2-yl)-1H-pyrazole-4-carboxamide]",ATP production (estimated from OCR),SW480 cells [4],inhibited ATP production as a function of dosage
same,ROS generation (DHE staining),SW480 cells [4],increased ROS generation
same,oxygen consumption rate (OCR),SW480 cells [4],reduced oxygen consumption rate
same,mitochondrial morphology,"SW480 cells [4]; 10 μM, 4 hours",caused short and punctuated mitochondria
same,tumor growth,SW620 xenograft,markedly inhibited tumor growth; also recorded: inhibited SW620 xenograft growth
"Cc1ccccc1-n1ncc(C(=O)Nc2ccc3ccccc3n2)c1C [YW2013, 5-Methyl-N-(quinolin-2-yl)-1-(o-tolyl)-1H-pyrazole-4-carboxamide]","expression of Axin-2, β-catenin, and c-myc",SW480 cells [5],visibly reduced
same,mRNA expression of Wnt regulated genes (Axin-2 and/or cyclin D1),A549 cells,reduced mRNA expression
same,mRNA expression of Wnt regulated genes (Axin-2 and/or cyclin D1),WiDr cells,reduced mRNA expression
same,mRNA expression of Wnt regulated genes (Axin-2 and/or cyclin D1),SW620 cells [6],reduced mRNA expression
same,apoptosis,SW620 cells [7],induced apoptosis in SW620 cells in a dose dependent manner
same,colony formation,SW480 cells [8],dose dependent reduction
same,colony formation,"SW620 cells [9]; 0-30 μM, 2 weeks",dose dependent reduction
same,reduction in colony formation in combination,SW620 cells [9]; combined with Gefitinib,markedly increased when combined with Gefitinib
same,effect on cell cycle,SW620 cells [10],cell cycle arrest in the G1 and S phases
same,activity at 1 µM,Wnt/β-catenin pathway,1.9%
same,IC50,Wnt/β-catenin pathway; HEK293,9.6 nM
same,growth inhibitory activity,[11],micromolar growth inhibitory activity
same,apical-to-basolateral and basolateral-to-apical flux,[12],significant apical-to-basolateral and basolateral-to-apical flux
"CCc1ccccc1-n1ncc(C(=O)Nc2ccc3ccccc3n2)c1C [YW2044, 1-(2-Ethylphenyl)-5-methyl-N-(quinolin-2-yl)-1H-pyrazole-4-carboxamide]",Axin-2 expression,SW480 cells [5],noticeable effect
same,mRNA expression of Wnt regulated genes (Axin-2 and/or cyclin D1),SW620 cells [6],reduce mRNA expression
same,colony formation,HT-29 cells,dose dependent reduction
same,growth inhibitory activity,[11],micromolar growth inhibitory activity
